The values below are quoted from earlier work in patent EP2535049A1 (Proyecto de Biomedicina Cima, S.L., priority 2011, dated 2012).

The conditions of the data set: Kulkarni and Patil 2004; Forgue et al., 2006; cited from earlier work.

Regarding `CCCc1nc(C)c2c(=O)[nH]c(-c3cc(S(=O)(=O)N4CCN(CC)CC4)ccc3OCC)nn12` [vardenafil], the “half-life in blood serum” value was 3.4 h.
